Article PMC5588088, “Topological Dissection of the Membrane Transport Protein Mhp1 Derived from Cysteine Accessibility and Mass Spectrometry” (Analytical Chemistry, 2017)

Assays:
[1] = target: T1, Mhp1 (Microbacterium maritypicum, UniProt D6R8X8); experiment: tryptophan fluorescence quenching titration; assay type: binding; settings: 140 mM NaCl (also 15 and 1000 mM)
T1 construct: gene hyuP; full-length wild type with C-terminal His6 tag, purified in DDM

[2] = target: T1, Mhp1; experiment: NEM labelling of Cys327 with intact mass spectrometry, protection by ligand; assay type: binding; settings: 140 mM Na+, pH 8, 25 °C, 0.05% DDM

T1 sequence (D6R8X8 whole entry): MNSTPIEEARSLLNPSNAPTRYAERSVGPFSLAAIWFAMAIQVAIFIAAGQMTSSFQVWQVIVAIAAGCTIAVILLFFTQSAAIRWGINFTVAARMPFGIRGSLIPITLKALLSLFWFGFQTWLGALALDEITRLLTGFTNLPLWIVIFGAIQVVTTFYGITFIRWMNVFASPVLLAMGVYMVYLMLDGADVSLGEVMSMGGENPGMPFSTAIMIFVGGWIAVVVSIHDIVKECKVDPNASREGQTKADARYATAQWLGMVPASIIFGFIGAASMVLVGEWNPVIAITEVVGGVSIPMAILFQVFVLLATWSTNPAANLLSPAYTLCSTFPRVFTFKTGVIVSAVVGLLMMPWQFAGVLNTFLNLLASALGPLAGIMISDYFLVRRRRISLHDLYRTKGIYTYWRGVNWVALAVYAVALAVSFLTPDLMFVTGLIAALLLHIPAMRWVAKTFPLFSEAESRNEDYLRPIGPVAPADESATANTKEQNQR

Row | SMILES | Kd app [1] | reduction in NEM labeling at 2 mM [2]
1 | O=C1NC(=O)[C@H](Cc2ccccc2)N1 [L-BH, 5-benzyl-L-hydantoin] | Tryptophan fluorescence quenching of Mhp1 upon titration with L-BH | 
2 | O=C1NC(=O)[C@H](Cc2c[nH]c3ccccc23)N1 [L-IMH, 5-indolylmethyl-L-hydantoin] |  | 5-indolylmethyl-L-hydantoin (L-IMH)
